Data as given in patent publication US6251898A, “Medical use of fluorenone derivatives for treating and preventing brain and spinal injury” (Questcor Pharmaceuticals, Inc., priority 1999, dated 2001).
pIC50: −log10 of the molar value.

How the values were obtained:
[1] = tested on: UC11-MG human astrocytoma cells; experiment: D-aspartate (excitotoxin) release by hypo-osmotically stressed astrocytoma cells; format: cell-based
From the text: The in vitro tests described in this example used UC11-MG human astrocytoma cells, obtained from the University of Cincinnati, and described in Liwnicz et al 1986 and Lomneth et al 1989. Cell culture reagents (including RPMI 1640, fetal bovine serum, trypsin, and gentamicin) were obtained from Gibco (Gaithersburg, Md.). Radiolabelled D-[2,3-^3 H]aspartate was obtained from Amersham Life Sciences (Buckinghamshire, England). ScintiVerse II scintillation fluid was obtained from Fisher Scientific (Pittsburgh, Pa.). All other chemicals were obtained from Sigma Chemical Co. (St. Louis, Mo.). Osmolarities of solutions were measured using the Advance DigiMatic Osmometer Model 3D II (Advanced Instruments Inc., Mass.).
The UC11-MG astrocytoma cells were cultured in 75 ml vented flasks at 37° C. inside a humidified incubator in 5% CO2 /95% air. The cells were grown in RPMI Medium 1640 supplemented with 10% fetal bovine serum and […] gentamicin. At approximately 90% confluence, the cells were detached and suspended using a 0.0625% trypsin solution in Buffer A (137 mM NaCl, 5.37 mM KCl, 5.55 mM glucose, 4.17 mM NaHCO3, and 0.54 mM EDTA disodium salt, pH 7.4). The cells were then plated onto 6-well tissue culture plates at a seeding ratio of 4 plates per flask and 4 ml of cell-media suspension per well. The plated cells were used in experiments the next day at approximately 90% confluence. Plates that appeared to be more than 95% confluent were not used, because higher levels of confluence led to uncontrollable differentials in exposure of the cells to culture media and labelled aspartate. All tests were performed in triplicate. All media collections were done at 5 minute intervals, using pipettes, and were followed by promptly loading fresh buffer into each well before any drying occurred. All buffer samples collected in this manner were loaded into scintillation vials, mixed with 5 ml scintillation fluid, and counted for 1 minute in a scintillation counter (Beckman LS8000, Fullerton, Calif.).
Prior to D-aspartate exposure, the wells were washed three times under sterile conditions with 3 ml of 37° C. Buffer B (122 mM NaCl, 3.3 mM KCl, 1.2 mM CaCl2, 0.4 mM MgSO4, 1.2 mM KH2 PO4, 25 mM Hepes, 10 mM glucose, pH 7.4).
The cells were then loaded with 0.5 μCi/ml of D-aspartate, and incubated at 37° C. for 30 min. Cells were then washed four times with Buffer B, and the last washing fluid was left on the cells. The plates were then placed on an orbital shaker and maintained at 37° C.
Baseline aspartate release levels (prior to drug treatment) were determined by incubating the cells with normal Buffer B (285 mOsm) for 15 minutes, while buffer was collected every 5 minutes.
After the buffer was collected from a well at the 15 minute mark, the next set of normal Buffer B added to that well contained a test compound at a known concentration; each compound was tested over a range of concentrations. Cells were then incubated for two 5 minute intervals with solutions of test compounds in normal Buffer B. In some tests which used buffers containing relatively high concentrations of a test drug with limited solubility in water, DMSO was added to the mixture to increase the solubility of the compound in water.
Beginning at the 25-minute mark, the cells were stimulated to begin releasing aspartate by loading a well with hypo-osmotic buffer, prepared by diluting Buffer B with an equal volume of distilled and deionized H2 O, resulting in an osmolarity of about 145 mOsm. This hypo-osmoticsolution caused the cells to begin taking in excess water, to try to reestablish the normal osmotic gradients that exist across the cell membranes. The water-induced swelling and stress then began to induce release of aspartate by the cells, and the amount of aspartate released by the swollen astrocyte cells was measured by removing the buffer every 5 minutes and testing it in a scintillation counter.

[2] = tested on: neuronal damage caused by focal brain ischemia; experiment: Focal cerebral ischemia, middle cerebral artery occlusion model in rats; format: in vivo, Sprague-Dawley rats
Experimental: Other in vivo tests were also carried out using "focal" brain ischemia (i.e., blood supply to only a portion of the brain is disrupted, as usually occurs during a stroke). These assays used a surgical procedure described in Example 25, in which the right middle cerebral artery (MCA) and the right common carotid artery (CCA) of rats were clamped shut for two hours. The clamps were then removed, and the GERI-E7 was administered subsequently. The rats were sacrificed 3 days later, and brain sections were analyzed using tetrazolium dye, to determine the volumes of brain tissue with large numbers of dead or dying neurons.
In a second set of in vivo tests, a middle cerebral artery occlusion model was used in rats, to evaluate the ability of test compound GERI-E7 to reduce neuronal damage caused by focal brain ischemia. These tests were also performed in the laboratory of Dr. Claude Wasterlain, at the Sepulveda VA Medical Center in Los Angeles.
Male Sprague-Dawley rats (220 to 285 g) were intubated with an 18 gauge gavage needle and artificially respirated with a Harvard small animal respirator, 50 to 60 strokes/min, 2.0 to 3.0 cc. Anesthetization was induced by administering 1 to 2% methoxyflurane in a 1:2 O2 :N2 O gas mixture. To allow for rapid induction of the anesthetic state, succinylcholine (4 mg/kg, i.p.) was given immediately after anesthesia commenced, and surgery began 15 to 20 minutes later. Body temperature was maintained throughout by a heat lamp and rectal probe.
Focal cerebral ischemia was induced by reversibly clipping the right middle cerebral artery (MCA) and the right common carotid artery (CCA), as described in articles such as Kaplan et al 1991. A tracheal incision approximately 2.5 cm long was made, allowing placement of 4-0 suture silk under the CCA. This allowed rapid manipulation of the artery for clip placement. The temporalis muscle was partially excised and a 2 mm burr hole was drilled 2-3 mm rostral to the point of fusion of the zygoma with the temporal bone. Saline was used throughout this procedure for washing and maintenance of moisture.
The MCA was occluded below the rhinal fissure with a Codman Microaneurysm Clip #1. After the MCA was occluded the animal was turned onto its back and the CCA was occluded with a Roboz Microaneurysm Clip RS-5424.
A moistened piece of cotton was placed on the head wound and the tracheal region was partially closed by suture prior to placement of the animal in a warm cage with an oxygen tent. After a two-hour occlusion period (shown to produce a consistently measurable but non-lethal infarct), the clips were removed and methoxyflurane was administered via a nose cone. Visual verification was made for both artery occlusion, and post-occlusion reperfusion.
After the clips were removed and reperfusion was established, each animal was treated with either the GERI-E7 compound, at 20 mg/kg IV, or with the saline vehicle. All test and control groups had 10 animals. The wounds were closed and the animals were returned to their home cages.
Animals were sacrificed 72 hours later, and the brains were perfusion-fixedwith 4% paraformaldehyde. […] Infarct area was measured with an image analysis system at 8 to 10 levels between the posterior hippocampus and piriform olfactory cortex, to the level of the rhinal fissure. Infarct volume was determined by multiplying the average infarct area by the length of the brain between the posterior hippocampus and the piriform olfactory cortex. […]

## CCC[C@]12CCC(=O)C=C1c1c(cc(OCC3=NCCO3)c(Cl)c1Cl)C2 [GERI-E7, R(+)-2-[[(5,6-dichloro-2,3,9,9a-tetrahydro-3-oxo-9a-propyl-1H-fluoren-7-yl)-oxy]methyl]oxazoline]
[1]; Homo sapiens, UC11MG, hypo-osmotic stress, about 145 mOsm, AUC-based, read-out: IC50 value (suppression of excitotoxin / D-aspartate release by stressed astrocyte cells)
  pIC50: 5.07
[1]; relative to L-644,711 (100% = benchmark)
  Comparative potency: 3,100%
[2]; 20 mg/kg IV after 2 h occlusion, 72 h
  Edema: Edema was also reduced
[2]; 20 mg/kg IV after 2 h occlusion, 72 h, FIG. 13
  Reduction of area of infarct volume: about 50%
[2]; animal model used
  Reduction of brain damage caused by focal brain ischemia: very effective in reducing brain damage
[2]; first round of focal assays
  Reduction of infarct volumes: about 30%
[2]; second set of assays, new batch stored in liquid nitrogen, mixed with carrier less than 24 hours before injection, average
  Reduction of infarct volumes: 50%
